Activity calls are given as the source filed them.
Tests used:
cells = format: functional
Cytochrome P450 3A4 = Cytochrome P450 3A4 (Homo sapiens, UniProt P08684);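 note: CYP3A4 tested as one member of a cytochrome P450 panel screen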
[1] = HEK-293T cell viability reduction – luminescence, B-cell screen hits, cytotoxicity control for BCR NF-kB inhibitor project, dose response (AID 489021); format: functional, cell-based;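 note: HEK-293T cells carrying an NF-kB luciferase reporter; cells exposed to compound for about 14 hours before viability readout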
Aminopeptidase N = target: T1, Aminopeptidase N (Plasmodium falciparum FcB1/Columbia, UniProt O96935); assay: malaria alanyl aminopeptidase activity blockers – biochemical, fluorogenic H-Leu-NHMec substrate, 1536-well (AID 1445); set-up: species or system Plasmodium falciparum 3D7, 3D7
T1 sequence (O96935 whole entry): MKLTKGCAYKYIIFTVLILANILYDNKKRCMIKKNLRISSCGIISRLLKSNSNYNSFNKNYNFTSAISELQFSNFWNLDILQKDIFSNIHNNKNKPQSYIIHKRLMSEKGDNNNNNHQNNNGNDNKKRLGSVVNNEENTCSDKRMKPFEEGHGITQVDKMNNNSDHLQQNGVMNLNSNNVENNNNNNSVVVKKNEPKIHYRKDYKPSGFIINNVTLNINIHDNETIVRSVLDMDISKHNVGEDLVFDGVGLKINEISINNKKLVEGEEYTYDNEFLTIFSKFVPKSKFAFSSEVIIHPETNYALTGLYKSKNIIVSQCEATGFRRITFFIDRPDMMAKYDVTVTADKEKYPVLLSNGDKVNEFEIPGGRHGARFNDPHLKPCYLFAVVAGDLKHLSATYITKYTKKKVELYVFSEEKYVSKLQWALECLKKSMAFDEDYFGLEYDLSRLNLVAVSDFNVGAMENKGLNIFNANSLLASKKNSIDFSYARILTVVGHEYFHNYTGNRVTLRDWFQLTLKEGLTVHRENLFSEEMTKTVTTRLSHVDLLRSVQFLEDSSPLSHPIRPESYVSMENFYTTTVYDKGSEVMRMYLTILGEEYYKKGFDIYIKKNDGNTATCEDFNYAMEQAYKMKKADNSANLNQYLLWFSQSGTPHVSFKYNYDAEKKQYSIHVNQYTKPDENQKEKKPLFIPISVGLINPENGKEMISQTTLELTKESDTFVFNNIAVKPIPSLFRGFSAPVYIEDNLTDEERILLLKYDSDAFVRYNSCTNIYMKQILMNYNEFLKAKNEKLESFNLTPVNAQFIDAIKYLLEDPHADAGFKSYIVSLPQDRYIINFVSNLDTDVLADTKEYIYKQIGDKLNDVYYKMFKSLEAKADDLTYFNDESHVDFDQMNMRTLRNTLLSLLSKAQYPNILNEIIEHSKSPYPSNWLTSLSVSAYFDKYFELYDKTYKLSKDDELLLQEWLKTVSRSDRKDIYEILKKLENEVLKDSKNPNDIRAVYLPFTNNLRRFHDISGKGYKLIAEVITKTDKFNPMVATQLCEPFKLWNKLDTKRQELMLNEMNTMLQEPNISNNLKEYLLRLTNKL

[2] = target: Induced myeloid leukemia cell differentiation protein Mcl-1 (Homo sapiens, UniProt Q07820); format: functional
Induced myeloid leukemia cell differentiation protein Mcl-1, sequence (Q07820 whole entry, the tested form may be a part): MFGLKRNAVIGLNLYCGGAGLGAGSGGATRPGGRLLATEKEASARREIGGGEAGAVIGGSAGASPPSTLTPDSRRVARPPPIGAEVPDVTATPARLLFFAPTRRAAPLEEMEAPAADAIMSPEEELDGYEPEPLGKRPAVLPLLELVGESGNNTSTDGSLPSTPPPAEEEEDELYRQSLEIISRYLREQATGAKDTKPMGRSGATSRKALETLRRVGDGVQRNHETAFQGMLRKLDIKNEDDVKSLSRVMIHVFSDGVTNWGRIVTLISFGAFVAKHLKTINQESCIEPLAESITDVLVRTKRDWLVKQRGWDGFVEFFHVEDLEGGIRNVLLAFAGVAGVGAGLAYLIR

[3] = target: T2, Carboxy-terminal domain RNA polymerase II polypeptide A small phosphatase 1 (Homo sapiens, UniProt Q9GZU7); assay: CTDSP1 inhibitors, concentration-response, biochemical, absorbance readout, ultra-high-throughput screen actives (AID 540297); format: functional
T2 sequence (Q9GZU7 whole entry): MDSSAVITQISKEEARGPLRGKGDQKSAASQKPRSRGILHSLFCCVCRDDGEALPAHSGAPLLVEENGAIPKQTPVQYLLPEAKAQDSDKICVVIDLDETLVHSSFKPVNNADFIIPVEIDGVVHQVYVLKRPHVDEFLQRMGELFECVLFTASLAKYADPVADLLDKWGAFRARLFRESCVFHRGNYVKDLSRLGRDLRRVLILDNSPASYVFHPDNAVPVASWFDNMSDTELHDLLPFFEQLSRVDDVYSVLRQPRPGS

SUMO-activating enzyme [4] = target: T3, SUMO-activating enzyme (Homo sapiens, UniProt Q9UBT2); assay: blockers of UBC9-mediated SUMO conjugation – biochemical, AlphaScreen, SUMOylation inhibitor project, confirmation (AID 2018); format: functional
T3 sequence (Q9UBE0 whole entry): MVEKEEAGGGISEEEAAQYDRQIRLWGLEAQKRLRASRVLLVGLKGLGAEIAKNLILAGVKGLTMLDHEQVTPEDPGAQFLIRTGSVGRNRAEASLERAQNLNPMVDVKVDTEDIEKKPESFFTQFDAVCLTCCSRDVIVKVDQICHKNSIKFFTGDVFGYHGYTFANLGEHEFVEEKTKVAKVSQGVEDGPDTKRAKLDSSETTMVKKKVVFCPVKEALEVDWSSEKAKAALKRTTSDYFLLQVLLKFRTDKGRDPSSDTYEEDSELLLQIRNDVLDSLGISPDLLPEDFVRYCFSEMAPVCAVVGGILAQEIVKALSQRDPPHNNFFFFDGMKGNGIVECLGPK
T3 sequence (Q9UBT2 whole entry): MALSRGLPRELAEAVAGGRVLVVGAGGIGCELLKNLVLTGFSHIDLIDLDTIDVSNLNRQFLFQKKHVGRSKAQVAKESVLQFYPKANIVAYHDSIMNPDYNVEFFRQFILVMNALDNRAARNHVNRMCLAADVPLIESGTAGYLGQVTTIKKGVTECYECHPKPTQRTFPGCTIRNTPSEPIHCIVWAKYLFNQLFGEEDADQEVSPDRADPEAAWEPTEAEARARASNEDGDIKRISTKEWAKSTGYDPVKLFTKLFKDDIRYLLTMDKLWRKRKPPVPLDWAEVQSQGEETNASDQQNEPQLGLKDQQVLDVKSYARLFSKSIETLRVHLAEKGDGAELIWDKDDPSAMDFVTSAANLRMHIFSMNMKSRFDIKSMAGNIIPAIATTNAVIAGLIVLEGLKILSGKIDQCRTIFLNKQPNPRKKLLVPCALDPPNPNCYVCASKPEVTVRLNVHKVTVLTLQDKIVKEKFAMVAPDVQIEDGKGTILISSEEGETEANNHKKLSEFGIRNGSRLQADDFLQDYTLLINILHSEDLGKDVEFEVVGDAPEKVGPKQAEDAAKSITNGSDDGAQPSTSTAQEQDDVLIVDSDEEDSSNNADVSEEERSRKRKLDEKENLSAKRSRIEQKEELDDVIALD

SUMO-activating enzyme [5] = target: T3, SUMO-activating enzyme; assay: blockers of SAE1/SAE2–UBC9 SUMO transfer – biochemical, HTRF, uHTS, primary screen (AID 2006); format: protein-complex assay
Cytochrome P450 2C19 = Cytochrome P450 2C19 (Homo sapiens, UniProt P33261); assay: Cytochrome panel assay with activity outcomes. Panel member name: p450-cyp2c19 Compounds with AC50 equal or less than 10 uM are considered active; format: functional; conditions: read-out: AC50
Cytochrome P450 2C19, sequence (P33261 whole entry): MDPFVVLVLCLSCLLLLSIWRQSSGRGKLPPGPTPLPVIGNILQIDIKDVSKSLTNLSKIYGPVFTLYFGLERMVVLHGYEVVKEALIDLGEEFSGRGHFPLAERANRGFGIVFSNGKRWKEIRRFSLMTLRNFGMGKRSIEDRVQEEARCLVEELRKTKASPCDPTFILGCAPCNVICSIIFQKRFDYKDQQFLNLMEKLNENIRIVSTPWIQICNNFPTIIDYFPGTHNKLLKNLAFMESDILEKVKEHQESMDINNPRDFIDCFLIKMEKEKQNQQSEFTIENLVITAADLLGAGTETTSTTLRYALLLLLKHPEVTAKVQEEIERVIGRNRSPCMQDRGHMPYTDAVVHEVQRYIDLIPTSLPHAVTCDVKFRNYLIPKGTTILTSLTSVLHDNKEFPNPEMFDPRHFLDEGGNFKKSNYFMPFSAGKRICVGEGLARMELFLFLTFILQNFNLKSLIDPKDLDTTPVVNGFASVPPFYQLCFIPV

Cytochrome P450 2C9 = Cytochrome P450 2C9 (Homo sapiens, UniProt P11712)
Cytochrome P450 2C9, sequence (P11712 whole entry): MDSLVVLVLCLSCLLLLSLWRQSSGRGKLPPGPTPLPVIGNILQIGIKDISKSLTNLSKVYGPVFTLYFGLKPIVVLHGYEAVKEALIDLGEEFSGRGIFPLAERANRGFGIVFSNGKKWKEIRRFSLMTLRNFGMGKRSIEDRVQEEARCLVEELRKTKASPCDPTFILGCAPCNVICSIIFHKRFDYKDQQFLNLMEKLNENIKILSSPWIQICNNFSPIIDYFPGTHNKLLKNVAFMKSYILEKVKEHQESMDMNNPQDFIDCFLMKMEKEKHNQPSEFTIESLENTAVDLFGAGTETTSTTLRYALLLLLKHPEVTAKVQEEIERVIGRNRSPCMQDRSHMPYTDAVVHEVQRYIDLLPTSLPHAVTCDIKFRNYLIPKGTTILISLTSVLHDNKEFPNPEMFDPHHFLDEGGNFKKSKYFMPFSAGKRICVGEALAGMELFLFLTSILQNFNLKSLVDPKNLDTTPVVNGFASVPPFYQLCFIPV

Bcl-2-related protein A1 = target: T4, Bcl-2-related protein A1 (Mus musculus, UniProt Q07440); format: functional;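 note: confirmatory dose–response counterscreen on Bfl-1, used to check hits from a UBC13 polyubiquitin inhibitor campaign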
T4 sequence (Q07440 whole entry): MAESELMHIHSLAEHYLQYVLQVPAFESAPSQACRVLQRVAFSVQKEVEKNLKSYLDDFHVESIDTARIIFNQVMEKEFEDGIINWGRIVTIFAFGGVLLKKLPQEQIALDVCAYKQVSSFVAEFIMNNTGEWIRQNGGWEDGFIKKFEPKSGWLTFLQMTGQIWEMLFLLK

[6] = target: T5, Ubiquitin-conjugating enzyme E2 N (Homo sapiens, UniProt P61088); format: functional
T5 sequence (P61088 whole entry): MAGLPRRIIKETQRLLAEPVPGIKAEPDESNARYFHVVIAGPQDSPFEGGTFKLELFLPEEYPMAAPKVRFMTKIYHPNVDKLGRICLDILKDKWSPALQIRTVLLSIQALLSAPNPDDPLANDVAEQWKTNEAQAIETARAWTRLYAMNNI

[7] = target: T5, Ubiquitin-conjugating enzyme E2 N; format: functional; remark: listed apart in the source
[8] = NIH-3T3 fibroblast cytotoxicity, dose response, cytotoxicity control, cell-based, fluorescence, Alamar Blue, secondary assay (AID 2327); format: functional;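 note: NIH-3T3 mouse fibroblasts cultured with fluconazole at 8 µg/mL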
[9] = fluconazole-exposed Candida albicans growth modulators – fluorescence, retest, confirmation (AID 2467); format: functional, cell-based
[10] = Trypanosoma cruzi growth suppression in host cells – NIH3T3 host cells, beta-gal luminescence, confirmation (AID 2044); format: functional, cell-based;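 note: intracellular parasites grown in NIH/3T3 mouse fibroblasts as host cells; luminescent beta-galactosidase reporter signal from transgenic T. cruzi replicating inside host cells; inhibitors lower the luminescence signal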
[11] = NIH3T3 cell viability loss – ATP luminescence, mouse fibroblasts, counter-screen, dose response (AID 2010); format: functional, cell-based;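 note: cells exposed to compound for about 90 hours before reading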
[12] = target: T6, Microphthalmia-associated transcription factor (Homo sapiens, UniProt O75030); assay: reducers of TRPM1 reporter luminescence, concentration series – cell-based, SK-MEL-5, cherry-picked, set 3, MITF inhibitor project, dose response (AID 493073); format: functional;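 note: SK-MEL-5 melanoma cells with luciferase driven by the MITF target TRPM1 promoter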
T6 sequence (O75030 whole entry): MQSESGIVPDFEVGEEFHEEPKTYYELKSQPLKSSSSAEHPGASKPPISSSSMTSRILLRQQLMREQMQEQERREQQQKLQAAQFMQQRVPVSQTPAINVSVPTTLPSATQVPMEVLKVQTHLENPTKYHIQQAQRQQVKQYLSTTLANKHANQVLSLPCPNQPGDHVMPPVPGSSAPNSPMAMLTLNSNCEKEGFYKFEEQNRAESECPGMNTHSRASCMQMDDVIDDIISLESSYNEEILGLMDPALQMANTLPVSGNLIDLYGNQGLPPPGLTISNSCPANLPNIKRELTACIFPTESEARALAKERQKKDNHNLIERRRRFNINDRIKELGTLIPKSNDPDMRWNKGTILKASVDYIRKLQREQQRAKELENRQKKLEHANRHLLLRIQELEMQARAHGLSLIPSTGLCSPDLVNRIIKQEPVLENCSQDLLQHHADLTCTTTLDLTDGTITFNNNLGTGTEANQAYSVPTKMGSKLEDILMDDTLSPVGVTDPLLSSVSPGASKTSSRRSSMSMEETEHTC

INS1 = assay: INS-1E survival protection against cytokine death – cell-based, luminescence, retest, dose response (AID 449756); format: functional; conditions: Rattus norvegicus;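 note: cell death triggered by IL-1 beta plus TNF-alpha plus IFN-gamma mixture; protective hits raise ATP signal compared with cytokine alone wells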
Leucine aminopeptidase = target: T7, Leucine aminopeptidase (Plasmodium falciparum 3D7, UniProt Q8IL11); assay: P. falciparum M17LAP inhibitors, primary screen, biochemical, fluorogenic H-Leu-NHMec substrate, 1536-well (AID 1619); format: functional
T7 sequence (Q8IL11 whole entry): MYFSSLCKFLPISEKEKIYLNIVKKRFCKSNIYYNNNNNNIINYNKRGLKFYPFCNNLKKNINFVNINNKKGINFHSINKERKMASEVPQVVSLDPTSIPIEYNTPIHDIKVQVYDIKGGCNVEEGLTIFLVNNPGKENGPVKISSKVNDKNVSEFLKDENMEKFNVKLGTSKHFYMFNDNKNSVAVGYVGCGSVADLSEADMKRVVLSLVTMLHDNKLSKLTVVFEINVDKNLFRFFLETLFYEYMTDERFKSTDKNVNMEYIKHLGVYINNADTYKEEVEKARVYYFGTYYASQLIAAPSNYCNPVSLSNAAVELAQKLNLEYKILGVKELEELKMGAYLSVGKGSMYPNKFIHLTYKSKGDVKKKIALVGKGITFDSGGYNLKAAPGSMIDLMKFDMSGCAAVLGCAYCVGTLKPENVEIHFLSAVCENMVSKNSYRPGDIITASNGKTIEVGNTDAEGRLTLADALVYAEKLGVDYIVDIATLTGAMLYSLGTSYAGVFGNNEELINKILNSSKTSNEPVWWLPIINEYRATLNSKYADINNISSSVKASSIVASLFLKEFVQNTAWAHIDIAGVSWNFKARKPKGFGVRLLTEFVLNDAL

[13] = target: T8, Calpain-2 catalytic subunit (Sus scrofa, UniProt P43367); assay: m-calpain protease blockers, concentration series – biochemical, fluorogenic peptide substrate, dose response (AID 1420); format: functional
T8 sequence (P43367 whole entry): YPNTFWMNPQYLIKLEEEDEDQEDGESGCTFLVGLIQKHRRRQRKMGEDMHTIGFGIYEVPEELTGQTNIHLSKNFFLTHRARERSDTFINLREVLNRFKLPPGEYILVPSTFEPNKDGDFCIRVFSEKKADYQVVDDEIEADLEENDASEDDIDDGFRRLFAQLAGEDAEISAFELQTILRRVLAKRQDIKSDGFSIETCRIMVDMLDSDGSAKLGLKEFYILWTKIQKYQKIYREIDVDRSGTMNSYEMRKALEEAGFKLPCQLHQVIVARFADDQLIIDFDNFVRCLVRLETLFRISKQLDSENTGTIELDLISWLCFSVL

Cytochrome P450 3A4, sequence (P08684 whole entry): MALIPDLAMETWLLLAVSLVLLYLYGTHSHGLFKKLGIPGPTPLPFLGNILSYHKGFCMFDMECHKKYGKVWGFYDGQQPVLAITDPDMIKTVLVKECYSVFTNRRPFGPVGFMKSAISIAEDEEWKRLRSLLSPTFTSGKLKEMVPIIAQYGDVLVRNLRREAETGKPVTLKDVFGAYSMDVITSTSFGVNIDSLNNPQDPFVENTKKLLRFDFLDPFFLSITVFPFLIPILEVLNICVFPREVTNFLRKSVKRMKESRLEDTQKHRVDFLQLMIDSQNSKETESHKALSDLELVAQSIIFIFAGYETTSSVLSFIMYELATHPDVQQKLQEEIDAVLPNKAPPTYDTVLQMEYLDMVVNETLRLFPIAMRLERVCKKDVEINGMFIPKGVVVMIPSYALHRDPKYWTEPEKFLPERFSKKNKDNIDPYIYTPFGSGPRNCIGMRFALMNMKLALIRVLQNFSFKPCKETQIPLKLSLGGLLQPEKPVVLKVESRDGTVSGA

With `O=C(COC(=O)c1cc(Br)ccc1O)Nc1ccc2c(c1)OCO2` the IC50 (cells) was 22.1 µM (active).

For `CNc1cc(-c2ccccc2C(F)(F)F)ncn1`, the AC50 (Cytochrome P450 3A4) was “inconclusive”.

In the case of `CCOc1ccc(-c2nnc(SCC(=O)Nc3cc(C)on3)o2)cc1`, the IC50 [1] was > 80 µM (inactive).

In the case of `CS(=O)(=O)C1=NSC2=NC(=O)/C(=C\c3cccn3-c3ccc(Cl)cc3)C(=N)N21`, the IC50 (Aminopeptidase N) was 5.15 µM (active), the IC50 [2] was 4.98 µM (active) and the IC50 [3] was 5.93 µM (active).

For `O=C1NC(=S)NC(=O)C1=NNc1ccc(-c2ccccc2)cc1[N+](=O)[O-]`, the IC50 (Aminopeptidase N) was 10.5 µM (active), the IC50 (SUMO-activating enzyme [4]) was 4.11 µM (active) and the IC50 (SUMO-activating enzyme [5]) was 22.4 µM (active). For the same compound, the IC50 [2] was 4.83 µM (active).

With `O=C(Oc1ccccc1)N1CCC2(CC1)CN(C(c1ccccc1)c1ccccc1)C2` the AC50 (Cytochrome P450 2C19) was 31.6 µM (inconclusive), the AC50 (Cytochrome P450 2C9) was 39.8 µM (inconclusive) and the AC50 (Cytochrome P450 3A4) was “inconclusive”.

With `CC(C)CC(C(=O)NC(C)(C)C)N(CC1CCCO1)C(=O)c1snc(C(N)=O)c1N` (centres undefined) the IC50 (Bcl-2-related protein A1) was > 20 µM (inactive), the IC50 [6] was 13.4 µM (active) and the IC50 [7] was 11.2 µM (active).

For `CCOC(=O)c1c(C)[nH]c(C)c1C(=O)COC(=O)c1ccc([N+](=O)[O-])s1`, the IC50 (cells) was 8.59 µM (active).

For `COc1ccc(-c2cc(-c3ccccc3)[n+](C)c(-c3ccccc3)c2)cc1.[O-][Cl+3]([O-])([O-])[O-]`, the EC50 [8] was > 160 µM (inactive), the EC50 [9] was 0.57 µM (active) and the EC50 [10] was 0.131 µM (active). The EC50 [11] was > 60 µM (not active), the AC50 [12] was 3.2 µM (active) and the AC50 (INS1) was 2.85 µM (active).

In the case of `O=C(C[n+]1cccc2ccccc21)c1ccc([N+](=O)[O-])cc1`, the AC50 [12] was 6.21 µM (active).

With `Cc1ccc(C(=O)N2CCN(c3ccc(C(F)(F)F)cn3)CC2)cc1` the AC50 (Cytochrome P450 3A4) was “inconclusive”.

With `Cc1cc(NC(=O)COc2ccccc2)ccc1Cl` the IC50 (cells) was > 50 µM (active).

For `Cc1c(CCC(=O)N2CCC(C(=O)O)CC2)c(=O)oc2cc3oc4c(c3cc12)CCCC4`, the IC50 [1] was > 80 µM (inactive).

For `CCOc1ccccc1Nc1nnc(SCC(=O)NC(Cc2c[nH]c3ccccc23)C(=O)O)s1` (centres undefined), the IC50 (Leucine aminopeptidase) was 7.81 µM (active) and the IC50 (Aminopeptidase N) was 67.4 µM (active).

For `Cc1ccccc1CNC(=O)CCCC(=O)n1nc(C)c2ccccc21`, the IC50 (Bcl-2-related protein A1) was > 20 µM (inactive), the IC50 [6] was 13.5 µM (active) and the IC50 [7] was 20 µM (active).

With `CCN(CC)S(=O)(=O)c1ccc(N2CCOCC2)c(NC(=O)c2[nH]c(C)c(C(C)=O)c2C)c1` the IC50 [1] was > 80 µM (inactive).

In the case of `Cc1cccc2c1c(/N=N/C(=N)S)c(O)n2C1OC(CO)C(O)C(O)C1O` (centres undefined), the IC50 (Bcl-2-related protein A1) was > 20 µM (inactive), the IC50 [6] was 10.7 µM (active) and the IC50 [7] was 4.56 µM (active).

For `O=C(Nc1ccc2oc(=O)ccc2c1)c1ccc(-c2cccc(Cl)c2)o1`, the IC50 (SUMO-activating enzyme [4]) was 15.8 µM (active), the IC50 (SUMO-activating enzyme [5]) was 6.77 µM (active) and the IC50 [13] was 11.6 µM (not active).
